Experimental data as given in patent publication US10888608B2, “Costimulation of chimeric antigen receptors by MyD88 and CD40 polypeptides” (BELLICUM PHARMACEUTICALS, INC., priority 2014, dated 2021).
Where a chain is given by its changes, count along the chain named. Numbers in names are those of the source. Read-outs that look alike come from different tables or passages of the source.

B1: N405Q-S144Aco: Caspase-9 double mutant, class predicted (protein, UniProt P55211 1-416, looked up, variant N405Q S144A)
chain: MDEADRRLLRRCRLRLVEELQVDQLWDALLSRELFRPHMIEDIQRAGSGSRRDQARQLIIDLETRGSQALPLFISCLEDTGQDMLASFLRTNRQAAKLSKPTLENLTPVVLRPEIRKPEVLRPETPRPVDIGSGGFGDVGALEALRGNADLAYILSMEPCGHCLIINNVNFCRESGLRTRTGSNIDCEKLRRRFSSLHFMVEVKGDLTAKKMVLALLELAQQDHGALDCCVVVILSHGCQASHLQFPGAVYGTDGCPVSVEKIVNIFNGTSCPSLGGKPKLFFIQACGGEQKDHGFEVASTSPEDESPGSNPEPDATPFQEGLRTFDQLDAISSLPTPSDIFVSYSTFPGFVSWRDPKSGSWYVETLDDIFEQWAHSEDLQSLLLRVANAVSVKGIYKQMPGCFQFLRKKLFFKTS
modifications: codon optimized
notes: Caspase-9 double mutant, class predicted
B2: N405Q-T317Sco: Caspase-9 double mutant, class predicted (protein, UniProt P55211 1-416, looked up, variant N405Q T317S)
chain: B1 chain with A144S, T317S
modifications: codon-optimized
notes: as for B1

Columns and labels:
[1] = cited from earlier work
cells = assay: AP1903 amount needed in vitro for effective signaling of cells; assay type: cell-based
Procedure: The fixed dose of AP1903 for injection used, for example, may be 0.4 mg/kg intravenously infused over 2 hours. The amount of AP1903 needed in vitro for effective signaling of cells is about 10-100 nM (MW: 1412 Da). This equates to 14-140 μg/L or ˜0.014-0.14 mg/kg ([…]). The dosage may vary according to the application, and may, in certain examples, be more in the range of 0.1-10 nM, or in the range of 50-150 nM, 10-200 nM, 75-125 nM, 100-500 nM, 100-600 nM, 100-700 nM, 100-800 nM, or 100-900 nM. Doses up to 1 mg/kg were well-tolerated in the Phase I study of AP1903 provided above.

CD3^+ ΔCD19^+ cells = assay: Phase I clinical trial: iCasp9^+ allodepleted T cells after haplo-CD34^+ stem cell transplantation, AP1903 given for GvHD; assay type: in vivo, human
Text: This example presents results of a phase 1 clinical trial using an alternative suicide gene strategy. Briefly, donor peripheral blood mononuclear cells were co-cultured with recipient irradiated EBV-transformed lymphoblastoid cells (40:1) for 72 hrs., allodepleted with a CD25 immunotoxin and then transduced with a retroviral supernatant carrying the iCasp9 suicide gene and a selection marker (ΔCD19); ΔCD19 allowed enrichment to >90% purity via immunomagnetic selection.
Patients developing grade 1 GvHD were treated with 0.4 mglkg AP1903 as a 2-hour infusion. Protocols for administration of AP1903 to patients grade 1 GvHD were established as follows. Patients developing GvHD after infusion of allodepleted T cells are biopsied to confirm the diagnosis and receive 0.4 mg/kg of AP1903 as a 2 h infusion. […] Patients developing grades 2-4 GvHD were administered standard systemic immunosuppressive therapy per institutional guidelines, in addition to the AP1903 dimerizer drug.
Three patients received iCasp9^+ T cells after haplo-CD34^+ stem cell transplantation (SCT), at dose levels between about 1×10^6 to about 3×10^6 cells/kg.

[2] = test system: iC9-CD19.ζ-MC CAR-modified T cells; assay: Raji tumor NSG mouse model with iC9-CD19.ζ-MC CAR T cells and rimiducid (Example 19); assay type: in vivo, mice
Procedure: FIG. 40A-FIG. 40C provide results of the enhancement of CD19 CAR-T cell efficacy in vivo by the MyD88/CD40 chimeric costimulatory molecule using the constructs of FIG. 37A-FIG. 37E. FIG. 40A: NSG mice (n=5 per group) were engrafted with Raji-luciferase tumor cells and then treated with non-transduced (NT) or iC9-CD19.ζ-MC CAR-modified T cells on day 3. Tumor growth was measured by IVIS imaging and calculated by whole-body BLI, as shown in photos. FIG. 40B provides a graph of bioluminescent counts (BLI counts) and FIG. 40C provides a graph of (Kaplan-Meier analysis from (A)).
FIG. 41A-FIG. 41C provide results of assays of the titration of inducible chimeric Caspase-9 expressing cells, using the constructs of FIG. 37A-FIG. 37E, with rimiducid. FIG. 41A and FIG. 41B: NSG mice (n=5 per group) were engrafted with CD19^+ Raji lymphoma cells and treated with 5×10^6 iC9-CD19.ζ-MC/luciferase-transduced T cells at day 3. After 6 days, mice were treated i.p. with log dilutions of rimiducid (0.00005-5 mg/kg). BLI of CAR-T cells was assessed prior to rimiducid treatment and at 24 and 48 hours post-injection. […] FIG. 41C provides graphs of serum cytokine levels, which were measured from each group before (black line) and 24 hours post-administration (gray line) of rimiducid. *P-value=<0.01.
5×10^5 Raji tumor cells were injected i.v. into NSG mice. On day 3, CD19 CAR-modified T cells were injected i.v. and bioluminescence (BLI) was measured for either tumor or T cells on a weekly basis by IVIS imaging. […]
FIG. 40 provides the results of mouse in vivo efficacy assays using the various CD19-specific CAR constructs. […] Tumor growth was measured by IVIS imaging and calculated by whole-body BLI (B). […]
FIG. 41 provides the results of mouse in vivo assays including CD19-specific CAR constructs and the Caspase-9 safety switch. […] BLI of CAR-T cells was assessed prior to rimiducid treatment and at 24 and 48 hours post-injection. C) Serum cytokine levels were measured from each group before (black line) and 24 hours post-administration (orange line) of rimiducid. *P-value=<0.01.

Caspase-9 = assay: Caspase mutant classes: basal activity and ligand IC50; design: species or system human; conditions: mutants marked *, predicted
Text: Modified Caspase-9 Polypeptides with Lower Basal Activity and Minimal Loss of Ligand IC50
Even though homo-dimerization of wild-type initiator Caspase-9 is energetically unfavorable, making them mostly monomers in solution [14-16], the low-level inherent basal activity of unprocessed Caspase-9 [15, 17] is enhanced in the presence of the Apaf-1-based “apoptosome”, its natural allosteric regulator [6]. Moreover, supra-physiological expression levels and/or co-localization could lead to proximity-driven dimerization, further enhancing basal activation. The modified cells of the present application may comprise nucleic acids coding for a chimeric Caspase-9 polypeptide having lower basal signaling activity. Polynucleotides comprising Caspase-9 mutants with lower basal signaling may be expressed in the modified cells used for cell therapy herein. […] In some examples, the amount of dimerizer administered may be determined as an amount designed to remove the highest amount, at least 80% or 90% of the modified cells. In other examples, the amount of dimerizer administered may be determined as an amount designed to remove only a portion of the modified cells, in order to alleviate negative symptoms or conditions, while leaving a sufficient amount of therapeutic modified cells in the patient, in order to continue therapy. […]

[3] = rimiducid administered at objective evidence of sCRS

| Molecule | plasma levels versus dose ([1]; 0.01-1.0 mg/kg) | plasma levels, % of maximal concentration ([1]; 2 hours post-dose) [%] | plasma levels, % of maximal concentration ([1]; 10 hours post-dose) [%] | serious adverse events ([1]; Phase 1 study in volunteers) | severity of adverse events ([1]; Phase 1 study in volunteers) | doses well-tolerated ([1]; Phase I study) | mean Cmax / plasma concentrations ([1]; single doses 0.01-1.0 mg/kg infused IV over 2 hours) [ng/mL] | adverse events possibly related to AP1903 ([1]; vasodilatation (facial flushing), 1 volunteer at 1.0 mg/kg) | amount needed in vitro for effective signaling of cells (cells) [nM] | time to resolution of skin and liver aGvHD (CD3^+ ΔCD19^+ cells; after AP1903 administration) [h] | ablation of CD3^+ ΔCD19^+ cells (CD3^+ ΔCD19^+ cells; within 30 minutes of infusion, patients with grade I/II aGvHD) [%] | further reduction of CD3^+ ΔCD19^+ cells (CD3^+ ΔCD19^+ cells; within 24 hours) | CAR T cell elimination on titration ([2]; iCaspase-9 safety switch, titrated rimiducid) | resolution of clinical sCRS [2, 3] | time to normalization of cytokines [2, 3] [h] | Basal Activity (Caspase-9) |
| --- | --- | --- | --- | --- | --- | --- | --- | --- | --- | --- | --- | --- | --- | --- | --- | --- |
| CC[C@H](C(=O)N1CCCC[C@H]1C(=O)O[C@H](CCc1ccc(OC)c(OC)c1)c1cccc(OCC(=O)NCCNC(=O)COc2cccc([C@@H](CCc3ccc(OC)c(OC)c3)OC(=O)[C@@H]3CCCCN3C(=O)[C@@H](CC)c3cc(OC)c(OC)c(OC)c3)c2)c1)c1cc(OC)c(OC)c(OC)c1 (relative stereo) [AP1903, 2-Piperidinecarboxylic acid, 1-[(2S)-1-oxo-2-(3,4,5-trimethoxyphenyl)butyl]-, 1,2-ethanediylbis [imino(2-oxo-2,1-ethanediyl)oxy-3,1-phenylene[(1R)-3-(3,4-dimethoxyphenyl)propylidene]] ester, [2S-[1(R*),2R*[S*[S*[1(R*),2R*]]]]]-(9Cl)] | directly proportional to dose | ~7 | ~1 | No serious adverse events occurred | mild in severity | up to 1 mg/kg | 10 to 1275 | Only one adverse event was considered possibly related to AP1903 | 10 to 100 | ≤ 24 | > 90 | further log reduction | partial T cell elimination that still preserved CAR-T cell function | complete resolution of clinical sCRS without compromising tumor control | ≤ 24 | – |
| B1 | – | – | – | – | – | – | – | – | – | – | – | – | – | – | – | Decreased |
| B2 | – | – | – | – | – | – | – | – | – | – | – | – | – | – | – | Decreased |
